In article PMC520810, “Endoplasmic reticulum degradation impedes olfactory G-protein coupled receptor functional expression” (BMC Cell Biology, 2004):
pEC50: −log10 of the molar value.

Molecular target: T1, mOREG olfactory receptor (Olfr73) (Mus musculus, UniProt Q920P2)
T1 construct: gene Or5d18; N-terminal fusion with the first 20 amino acids of rhodopsin (Rho20-mOREG); untagged mOREG also measured
T1 sequence (Q920P2 1-313): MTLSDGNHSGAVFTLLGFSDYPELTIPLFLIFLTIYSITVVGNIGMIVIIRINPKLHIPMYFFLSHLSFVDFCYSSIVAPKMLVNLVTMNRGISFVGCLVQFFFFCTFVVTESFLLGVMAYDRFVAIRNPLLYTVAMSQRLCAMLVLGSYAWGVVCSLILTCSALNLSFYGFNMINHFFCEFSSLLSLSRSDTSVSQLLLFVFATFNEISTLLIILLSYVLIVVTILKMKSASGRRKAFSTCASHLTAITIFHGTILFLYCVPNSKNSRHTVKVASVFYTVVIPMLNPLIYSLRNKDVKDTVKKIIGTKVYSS
Experiment: calcium imaging (fluo-4) in HEK293 cells co-expressing Rho-mOREG and olfactory CNG channel
Type: cell-based
Source text: calcium imaging (fluo-4) in HEK293 cells co-expressing Rho-mOREG and olfactory CNG channel on mOREG olfactory receptor (Olfr73) | Responses to eugenol, a ligand for mOREG, were detected in cells co-expressing Rho-mOREG and CNG

**Q.** How did the pEC50 turn out when `C=CCc1ccc(O)c(OC)c1` [eugenol] was run?
**A.** 4.68
